Laboratory results reported in US20210275686A1, “BINDER/ACTIVE AGENT CONJUGATES DIRECTED AGAINST CXCR5, HAVING ENZYMATICALLY CLEAVABLE LINKERS AND IMPROVED ACTIVITY PROFILE” (BAYER AKTIENGESELLSCHAFT, priority 2018, published 2021).

Experiments:
[1] = test system: Rec-1: human mantle cell lymphoma cells; experiment: Cytotoxic activity, MTT assay, Rec-1; format: cell-based; details: Rec1, metabolites, 96 h
Protocol: (§1) The culturing of the cells is performed according to the standard method, as specified at the American Tissue Culture Collection (ATCC) or the Leibniz-Institut DSMZ-Deutsche Sammlung von Mikroorganismen and Zellkulturen GmbH (DSMZ) for the respective cell lines.
(§2) The culturing of the cells was performed according to the standard method with the growth media specified under C-1. For execution, the cells were separated with a solution of Accutase in PBS (Biochrom AG #L2143), pelleted, resuspended in culture medium, counted and seeded on a 96-well culture plate with a white background (Costar #3610) (NCI H292: 2500 cells/well; in 100 μL total volume). Then the cells were incubated in an incubator at 37° C. and 5% carbon dioxide. After 48 h a change of medium was performed. […] The cells in the suspension were counted and seeded into a 96-well culture plate with white background (Costar #3610) (#3610) (Rec-1: 3000 cells/well at a total volume of 100 μL). […] After 96 h the cell proliferation was detected using the MTT assay (ATCC, Manassas, Va., USA, Catalog No. 30-1010K). […] The color formed was detected at 570 nm (Infinite M1000 pro, Tecan). Based on the measured data the IC50 of the growth inhibition was calculated using the DRC (dose-response curve). […]

[2] = test system: Rec-1: human mantle cell lymphoma cells; experiment: Cytotoxic activity, CTG assay, Rec-1; format: cell-based; details: Rec1, metabolites
Protocol: as §1
The cells were cultured using the standard method, with the growth media specified under C-1. To perform the test, the suspended cells were counted and seeded in a 96-well culture plate with a white background (Perkin Elmer, NO 10775584) (at 75 μL/well; the resulting cell numbers per well are: Rec-1: 3000 cells/well, HBL-1 and Oci-Ly-1: 6000 cells/well) and incubated in an incubator at 37° C. and 5% carbon dioxide. […] In a parallel plate, the cell vitality was determined at the beginning of the active agent treatment (day 0) with the Cell Titer Glow (CTG) Luminescent Cell Viability Assay (Promega #G7573 and #G7571). For this purpose, 100 μL of the substrate were added per cell batch; then the plates were covered with aluminum foil, shaken for 2 minutes at 180 rpm with the plate shaker, allowed to stand for 8 minutes on the laboratory bench and then measured with a luminometer (Victor X2, Perkin Elmer). The substrate detected the ATP content in the living cells, generating a luminescence signal whose height is directly proportional to the vitality of the cells. […]

[3] = molecular target: T1, human kinesin spindle protein KSP/Eg5 (Homo sapiens, UniProt P52732); experiment: Inhibition of kinesin spindle protein KSP/Eg5 (ATPase, malachite green); format: biochemical; details: 10 nM KSP motor domain, microtubules, 500 μM ATP, 2 h RT
T1 construct: The motor domain of the human kinesin spindle protein KSP/Eg5; purchased tebu-bio/Cytoskeleton Inc 027EG01-XL
T1 sequence (P52732 18-359 limits assumed): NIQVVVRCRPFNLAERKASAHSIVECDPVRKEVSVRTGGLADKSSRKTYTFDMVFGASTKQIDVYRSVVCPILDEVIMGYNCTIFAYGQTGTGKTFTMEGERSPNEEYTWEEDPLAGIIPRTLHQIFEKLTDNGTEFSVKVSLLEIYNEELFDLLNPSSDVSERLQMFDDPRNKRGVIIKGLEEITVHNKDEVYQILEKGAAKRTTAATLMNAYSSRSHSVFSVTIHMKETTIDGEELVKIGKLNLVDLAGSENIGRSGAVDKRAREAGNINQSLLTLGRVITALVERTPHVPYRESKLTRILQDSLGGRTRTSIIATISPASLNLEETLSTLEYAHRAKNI
Protocol: The motor domain of the human kinesin spindle protein KSP/Eg5 (tebu-bio/Cytoskeleton Inc, No. 027EG01-XL) was incubated in a concentration of 10 nM with microtubules (bovine or porcine, tebu-bio/Cytoskeleton Inc) stabilized with 50 μg/ml taxol (Sigma No. T7191-5MG) for 5 min at RT in 15 mM PIPES, pH 6.8 (5 mM MgCl2 and 10 mM DTT, Sigma). The freshly prepared mixture was aliquoted into a 384 MTP (from Corning). This was followed by the addition of the inhibitors to be investigated at concentrations from 1.0×10^−6 M to 1.0×10^−13 M and ATP (final concentration 500 μM; Sigma). The mixture was incubated at RT for 2 h. The ATPase activity was determined by detection of the inorganic phosphate produced with malachite green (Biomol). Addition of the reagent was followed by incubation for 50 min at RT before the absorption was detected at a wavelength of 620 nm. Monastrol (Sigma, M8515-1 mg) and ispinesib (AdooQ Bioscience A10486) were used as positive controls. The individual data for the dose-efficacy curve are from eight-fold determinations. The IC50 values are mean values from two independent experiments.

[4] = test system: NCI-H292: human mucoepidermoid lung cancer cells; experiment: Cytotoxic activity, MTT assay, NCI-H292; format: cell-based; details: metabolites, 96 h
Protocol: as §1, §2

SMILES: CC(C)(C)[C@H](c1cc(-c2cc(F)ccc2F)cn1Cc1ccccc1)N(CCCN)C(=O)CO [Reference Example R1M, N-(3-Aminopropyl)-N-{(IR)-1-[1-benzyl-4-(2,5-difluorophenyl)-IH-pyrrol-2-yl]-2,2-dimethylpropyl}-2-hydroxyacetamide, reference compound]
- IC50 [1]: 0.293 nM
- IC50 [2]: 0.205 nM
- IC50 [3]: 1.09 nM
- IC50 [4]: 0.27 nM
